Publication PMC4823997 (Journal of medicinal chemistry, 2015)
Where two headings read alike, the source gives them in different places.

What was measured:
CXCR2 = target: T1, CXCR2 (Homo sapiens, UniProt P25025); experiment: CXCR2 radioligand binding assay; conditions: for selective index CXCR2: selectivity for CXCR4 binding versus CXCR2
T1 sequence (P25025 1-360): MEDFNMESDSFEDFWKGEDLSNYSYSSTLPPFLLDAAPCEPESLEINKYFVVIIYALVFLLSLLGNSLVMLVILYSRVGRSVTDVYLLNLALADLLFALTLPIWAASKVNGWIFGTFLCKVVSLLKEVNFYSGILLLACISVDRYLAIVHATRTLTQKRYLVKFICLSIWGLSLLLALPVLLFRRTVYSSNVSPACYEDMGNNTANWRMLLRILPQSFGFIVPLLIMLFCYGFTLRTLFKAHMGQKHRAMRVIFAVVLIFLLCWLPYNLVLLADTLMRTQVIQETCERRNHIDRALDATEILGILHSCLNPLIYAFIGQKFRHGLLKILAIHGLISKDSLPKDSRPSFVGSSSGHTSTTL

HIV-1 IIIB = experiment: Luciferase activity assay of HIV-1 infectivity in TZM-bl cells; type: cell-based; conditions: read-out: Anti-HIV EC50; TZM-bl cells, HIV-1 IIIB, M.O.I. 1
hCXCR4 = hCXCR4 (Homo sapiens, UniProt P61073); experiment: Radioligand [125I]SDF-1α binding to hCXCR4-transfected HEK293 membrane
CCR2 = CCR2 (Homo sapiens, UniProt P41597); experiment: CCR2 radioligand binding assay; conditions: for selective index CCR2: selectivity for CXCR4 binding versus CCR2
CCR5 = CCR5 (Homo sapiens, UniProt P51681); experiment: CCR5 radioligand binding assay; conditions: for selective index CCR5: selectivity for CXCR4 binding versus CCR5
CCR4 = target: T2, CCR4 (Homo sapiens, UniProt P51679); experiment: CCR4 radioligand binding assay; conditions: for selective index CCR4: selectivity for CXCR4 binding versus CCR4
T2 sequence (P51679 1-360): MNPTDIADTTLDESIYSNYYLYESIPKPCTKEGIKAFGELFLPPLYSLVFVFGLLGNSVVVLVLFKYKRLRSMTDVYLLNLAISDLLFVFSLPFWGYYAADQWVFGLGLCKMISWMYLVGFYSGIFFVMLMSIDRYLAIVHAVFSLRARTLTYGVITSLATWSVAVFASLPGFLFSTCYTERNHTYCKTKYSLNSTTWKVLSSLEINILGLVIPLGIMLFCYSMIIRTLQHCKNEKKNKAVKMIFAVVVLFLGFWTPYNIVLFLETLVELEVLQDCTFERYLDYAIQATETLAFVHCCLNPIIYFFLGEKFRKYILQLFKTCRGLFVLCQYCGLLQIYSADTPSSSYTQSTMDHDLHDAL

Cytotoxicity assay [1] = type: cell-based, human; conditions: human, CEM cells (T-lymphoblast leukemia)
Cytotoxicity assay [2] = type: cell-based; conditions: human, TZM-bl cells
[3] = system: CCRF-CEM cells that express endogenous human CXCR4; conditions: read-out: IC50 to block SDF-1α-induced CEM migration, 10 nM SDF-1, 2.5 h
HIV-1 = conditions: 0 to 20 nM
CXCR7 = CXCR7 (Homo sapiens, UniProt P25106); type: cell-based
CEM cells = experiment: Cytotoxicity assay; type: cell-based, human
TZM-bl cells = experiment: Cytotoxicity assay; type: cell-based

CCR2, sequence (P41597 whole entry, species assumed): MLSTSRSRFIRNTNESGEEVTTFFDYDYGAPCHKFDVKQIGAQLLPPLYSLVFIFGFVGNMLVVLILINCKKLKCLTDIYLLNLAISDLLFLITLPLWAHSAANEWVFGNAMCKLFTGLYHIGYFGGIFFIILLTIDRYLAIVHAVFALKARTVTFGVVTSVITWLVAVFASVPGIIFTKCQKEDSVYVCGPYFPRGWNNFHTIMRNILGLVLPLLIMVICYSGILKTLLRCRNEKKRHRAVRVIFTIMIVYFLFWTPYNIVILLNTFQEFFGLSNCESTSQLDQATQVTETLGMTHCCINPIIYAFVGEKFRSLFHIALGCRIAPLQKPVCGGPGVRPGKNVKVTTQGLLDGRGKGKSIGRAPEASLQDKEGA
hCXCR4, sequence (P61073 whole entry): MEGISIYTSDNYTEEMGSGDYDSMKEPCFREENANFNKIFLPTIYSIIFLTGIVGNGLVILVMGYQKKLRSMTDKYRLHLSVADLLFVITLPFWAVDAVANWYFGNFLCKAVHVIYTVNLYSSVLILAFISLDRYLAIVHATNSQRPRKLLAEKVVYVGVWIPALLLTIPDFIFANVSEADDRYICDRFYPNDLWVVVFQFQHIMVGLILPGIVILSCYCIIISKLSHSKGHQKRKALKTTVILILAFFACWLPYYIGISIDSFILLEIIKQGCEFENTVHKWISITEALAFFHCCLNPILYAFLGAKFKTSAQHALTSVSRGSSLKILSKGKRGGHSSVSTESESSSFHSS
CCR5, sequence (P51681 whole entry, species assumed): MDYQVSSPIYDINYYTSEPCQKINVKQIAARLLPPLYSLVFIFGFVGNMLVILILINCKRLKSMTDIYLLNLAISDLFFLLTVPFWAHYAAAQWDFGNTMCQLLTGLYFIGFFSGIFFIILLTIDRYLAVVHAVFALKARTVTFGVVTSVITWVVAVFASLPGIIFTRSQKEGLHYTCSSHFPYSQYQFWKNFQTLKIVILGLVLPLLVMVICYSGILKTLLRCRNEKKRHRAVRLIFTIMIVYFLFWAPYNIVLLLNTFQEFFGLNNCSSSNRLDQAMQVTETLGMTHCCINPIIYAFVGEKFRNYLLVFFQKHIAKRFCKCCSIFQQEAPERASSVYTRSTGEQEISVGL
CXCR7, sequence (P25106 whole entry): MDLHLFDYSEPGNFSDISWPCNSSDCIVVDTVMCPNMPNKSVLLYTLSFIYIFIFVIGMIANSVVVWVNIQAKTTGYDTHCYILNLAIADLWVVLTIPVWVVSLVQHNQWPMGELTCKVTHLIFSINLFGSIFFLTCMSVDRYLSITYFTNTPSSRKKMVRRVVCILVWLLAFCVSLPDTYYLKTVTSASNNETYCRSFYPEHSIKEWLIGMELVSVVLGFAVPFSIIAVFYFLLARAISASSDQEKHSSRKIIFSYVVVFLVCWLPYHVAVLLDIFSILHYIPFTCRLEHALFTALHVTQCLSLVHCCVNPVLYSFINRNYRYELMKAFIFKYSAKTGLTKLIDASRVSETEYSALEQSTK

c1cc(CNCCCNC2CCCCC2)cc(CNc2nc(N3CCNCC3)nc3[nH]cnc23)c1 [Compound 25, N-Cyclohexyl-N′-{3-[(2-piperazin-1-yl-9H-purin-6-ylamino)-methyl]-benzyl}-propane-1,3-diamine]
IC50 (CXCR2): > 10 µM
inhibition at 10 µM (CXCR2; read-out: inhibition (%) CXCR2): 12%
selective index CXCR2 (CXCR2): >2380
EC50 (HIV-1 IIIB): 0.00061 ± 0.00027 µM
inhibition at 10 µM (hCXCR4; read-out: inhibition (%) CXCR4): 100%
fold increase in CXCR4 binding affinity compared to compound 24 (hCXCR4; relative to compound 24): 4 fold
IC50 (CCR2): > 10 µM
inhibition at 10 µM (CCR2; read-out: inhibition (%) CCR2): 2%
selective index CCR2 (CCR2): >2380
IC50 (CCR5): > 10 µM
inhibition at 10 µM (CCR5; read-out: inhibition (%) CCR5): 14%
selective index CCR5 (CCR5): >2380
IC50 (CCR4): > 10 µM
inhibition at 10 µM (CCR4; read-out: inhibition (%) CCR4): 0%
selective index CCR4 (CCR4): >2380
CC50 at 72 h (Cytotoxicity assay [1]): > 50 µM
selectivity ratio at 72 h (Cytotoxicity assay [1]): > 83300
CC50 at 72 h (Cytotoxicity assay [2]): > 50 µM
selectivity ratio at 72 h (Cytotoxicity assay [2]): > 83300

c1nc2c(NCc3ccc(CCNCCCNC4CCCCC4)cc3)nc(N3CCNCC3)nc2[nH]1 [Compound 24, N-Cyclohexyl-N′-(2-{4-[(2-piperazin-1-yl-9H-purin-6-ylami-no)-methyl]-phenyl}-ethyl)-propane-1,3-diamine]
inhibition (%) CXCR2 (CXCR2; at 10 μM): 16%
IC50 (CXCR2; read-out: IC50 CXCR2): > 10 µM
selective index CXCR2 (CXCR2): >609
EC50 (HIV-1 IIIB): 0.00051 ± 2e-05 µM
inhibition (%) CXCR4 (hCXCR4; at 10 μM): 100%
fold increase in CXCR4 binding affinity compared to AMD3100 (hCXCR4; relative to AMD3100): 13 fold
fold increase in CXCR4 binding affinity compared to compound 4 (hCXCR4; relative to compound 4): 2.2 fold
inhibition (%) CCR2 (CCR2; at 10 μM): 10%
IC50 (CCR2; read-out: IC50 CCR2): > 10 µM
selective index CCR2 (CCR2): >609
IC50 [3]: 0.0031 µM
inhibition (%) CCR5 (CCR5; at 10 μM): 15%
IC50 (CCR5; read-out: IC50 CCR5): > 10 µM
selective index CCR5 (CCR5): >609
inhibition (%) CCR4 (CCR4; at 10 μM): 11%
IC50 (CCR4; read-out: IC50 CCR4): > 10 µM
selective index CCR4 (CCR4): >609
anti-HIV activity, time of addition (HIV-1; added 3 h after HIV-1 infection): significantly reduced
anti-HIV activity, time of addition (HIV-1; added 3 h before or simultaneously with HIV-1 infection): maintained its potent anti-HIV activity
functional selectivity over CXCR4-dependent HIV entry inhibition (CXCR7; CXCR7 β-arrestin assay versus HIV entry inhibition): > 1960 fold
antagonism of SDF-1α binding to CXCR7 or triggering of β-arrestin recruitment (CXCR7; even at a 40-fold higher SDF-1α concentration): did not antagonize
Selective Index CC50/EC50 CEM (CEM cells; CC50 (CEM) / anti-HIV EC50): >98039
CC50 (CEM cells; read-out: Cytotoxicity CC50 CEM, CEM cells, 72 h): > 50 µM
Selective Index CC50/EC50 TZM-bl (TZM-bl cells; CC50 (TZM-bl) / anti-HIV EC50): >98039
CC50 (TZM-bl cells; read-out: Cytotoxicity CC50 TZM-bl, TZM-bl cells, 72 h): > 50 µM
